The source made the active and inactive calls. Cut-off read from the data, not from the text of the source: actives have a measured IC50 and inactives only a lower limit.

The assay deals with Envelope glycoprotein gp160 (Human immunodeficiency virus 1, UniProt Q6QLK5). The assay is described as follows: inhibitors of HIV fusion peptide binding, primary screen, biochemical, uHTS, fluorescence dequenching (AID 1986).
Envelope glycoprotein gp160, sequence (Q6QLK5 whole entry, the tested form may be a part): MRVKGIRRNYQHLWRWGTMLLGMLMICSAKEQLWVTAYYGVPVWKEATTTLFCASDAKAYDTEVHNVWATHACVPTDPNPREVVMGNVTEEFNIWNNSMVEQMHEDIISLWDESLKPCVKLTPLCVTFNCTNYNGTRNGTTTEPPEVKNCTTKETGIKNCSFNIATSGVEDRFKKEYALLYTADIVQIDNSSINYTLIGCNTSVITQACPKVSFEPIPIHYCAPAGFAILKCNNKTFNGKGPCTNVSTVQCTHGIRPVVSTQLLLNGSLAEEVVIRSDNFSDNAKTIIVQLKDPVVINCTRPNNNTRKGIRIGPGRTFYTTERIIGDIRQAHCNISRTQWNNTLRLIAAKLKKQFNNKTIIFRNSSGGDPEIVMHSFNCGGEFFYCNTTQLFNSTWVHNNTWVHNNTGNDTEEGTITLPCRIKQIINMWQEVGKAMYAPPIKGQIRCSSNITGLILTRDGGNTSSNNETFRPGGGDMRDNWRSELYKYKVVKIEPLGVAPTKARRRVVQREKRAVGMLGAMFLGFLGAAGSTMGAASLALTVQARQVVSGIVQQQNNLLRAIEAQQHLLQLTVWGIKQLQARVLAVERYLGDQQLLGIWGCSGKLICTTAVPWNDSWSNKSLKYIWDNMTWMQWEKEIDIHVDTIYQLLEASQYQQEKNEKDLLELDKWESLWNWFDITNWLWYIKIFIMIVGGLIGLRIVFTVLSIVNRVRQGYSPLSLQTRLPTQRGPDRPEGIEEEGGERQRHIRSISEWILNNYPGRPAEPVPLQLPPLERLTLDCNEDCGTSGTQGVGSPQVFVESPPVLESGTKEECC

Turning to `COc1cc(/C=C2\SC(=O)N(c3ccccc3Cl)C2=O)cc([N+](=O)[O-])c1O`, the half-maximal inhibitory concentration (IC50) (in general, the concentration that inhibits the measured activity by half) was 24.7 µM (active).

For the origin of these results see ChEMBL document CHEMBL1201862, “PubChem BioAssay data set” (2004).
